Structures can show the parent of a compound that is named as a salt.
Legend:
[1] = test system: memory dysfunction of scopolamine-treated rats; conditions: Morris water maze test; cited from earlier work
[2] = test system: scopolamine induced learning and memory deficit; assay: Morris water maze test, scopolamine induced learning and memory deficit in rats; assay type: in vivo, Sprague-Dawley male rats; conditions: for average time to locate the submerged platform: Day 1 of acquisition trials, whole group
Method: The Morris water maze test is a classical cognitive test for evaluation of spatial learning and memory in rodents. […] 60 Sprague-Dawley male rats were used in the present study. The animals were housed in cages in groups of four rats per cage. All rats were fed with food and water ad libitum. The testing apparatus can be described as follows. A circular pool was filled with water (24±1° C.) to the depth of 30 cm. […] Four start positions were at the perimeter of the pool: the first one in the first quadrant, the second one in the second quadrant, the third one in the third quadrant and the last one in the fourth quadrant. The rats were trained to escape from water by swimming to a hidden platform whose location was only identified using visual cues attached to the curtain around the pool. Visual cues had different colors and dimensions and were kept constant during the whole experiment. All rats were trained in the swimming pool for 60 seconds without the platform. […] The training procedure included 4 trials per day with 4 different and randomized starting positions. In each trial, the time of rat to reach the platform (escape latency) was recorded, and then the rat was allowed to stay on the platform for 15 seconds. […] The experimental group setting is described in Table 3. […] For practical reasons, the study was divided into two sessions (Table 4). Each session included 6 groups, and each group included 5 rats. Each session took 10 days to complete. […] On day 6, each rat was placed in the swimming pool with no platform to locate the platform site for 60 seconds. […] Any Maze software was used for video tracking and data collection during the whole acquisition trial and probe trial. In acquisition trial, escape latency was recorded. In probe trial, time spent in target and swimming speed was recorded. Data were analyzed and graphed by Graph Pad Prism 5.

[3] = Day 1, session 1, 250 mg/kg po + scopolamine 0.5 mg/kg ip
[4] = Day 1, session 2, 250 mg/kg po + scopolamine 0.5 mg/kg ip
[5] = Day 2, session 1, 250 mg/kg po + scopolamine 0.5 mg/kg ip
[6] = Day 2, session 2, 250 mg/kg po + scopolamine 0.5 mg/kg ip
[7] = Day 3, session 1, 250 mg/kg po + scopolamine 0.5 mg/kg ip
[8] = Day 3, session 2, 250 mg/kg po + scopolamine 0.5 mg/kg ip
[9] = Day 4, session 1, 250 mg/kg po + scopolamine 0.5 mg/kg ip
[10] = Day 4, session 2, 250 mg/kg po + scopolamine 0.5 mg/kg ip
[11] = Day 5, session 1, 250 mg/kg po + scopolamine 0.5 mg/kg ip
[12] = Day 5, session 2, 250 mg/kg po + scopolamine 0.5 mg/kg ip
[13] = Day 6, session 1, 250 mg/kg po + scopolamine 0.5 mg/kg ip on days 1-5
[14] = Day 6, session 2, 250 mg/kg po + scopolamine 0.5 mg/kg ip on days 1-5, in s

C=C1C[C@@]23CC[C@H]4[C@@](C)(CCC[C@@]4(C)C(=O)O[C@@H]4O[C@H](CO)[C@@H](O)[C@H](O)[C@H]4O)[C@@H]2CC[C@]1(O[C@@H]1O[C@H](CO)[C@@H](O)[C@H](O)[C@H]1O[C@@H]1O[C@H](CO)[C@@H](O)[C@H](O)[C@H]1O)C3 [Stevioside]
effect in cognitive deficits of rats (in words) [1]: memory-preservative effect | effect on learning and memory deficit induced by scopolamine, probe trials (in words) ([2]; 250 mg/kg): significantly reversed | Latency to escape in acquisition trial [2, 3]: 44.98 ± 5.53 s | Latency to escape in acquisition trial [2, 4]: 46.48 ± 3.66 s | average time to locate the submerged platform ([2]; 250 mg/kg po + scopolamine): 45.73 ± 3.14 s | Latency to escape in acquisition trial [2, 5]: 45.78 ± 6.95 s | Latency to escape in acquisition trial [2, 6]: 40.44 ± 3.63 s | Latency to escape in acquisition trial [2, 7]: 44.80 ± 5.46 s | Latency to escape in acquisition trial [2, 8]: 39.46 ± 9.62 s | Latency to escape in acquisition trial [2, 9]: 41.74 ± 6.39 s | Latency to escape in acquisition trial [2, 10]: 35.78 ± 4.95 s | Latency to escape in acquisition trial [2, 11]: 30.86 ± 6.57 s | Latency to escape in acquisition trial [2, 12]: 31.08 ± 3.33 s | Time spent in target quadrant in probe trial [2, 13]: 20.78 ± 3.75 s | Time spent in target quadrant in probe trial [2, 14]: 21.10 ± 2.16

C[C@@]12CC[C@@H]3[C@@](CC[C@H]4[C@@]3(C)CCC[C@@]4(C)C(=O)O)(CC1=O)C2 (single isomer, unassigned; ent-16) [Isosteviol, ent-16-ketobeyeran-19-oic acid]
effect on learning and memory deficit induced by scopolamine, probe trials (in words) ([2]; 80 mg/kg): significantly attenuated | effect on learning and memory deficit induced by scopolamine, probe trials (in words) ([2]; 250 mg/kg): not | Latency to escape in acquisition trial ([2]; Day 1, session 1, 80 mg/kg po + scopolamine 0.5 mg/kg ip): 46.46 ± 4.50 s | Latency to escape in acquisition trial [2, 3]: 46.16 ± 2.48 s | Latency to escape in acquisition trial ([2]; Day 1, session 2, 80 mg/kg po + scopolamine 0.5 mg/kg ip): 45.20 ± 6.40 s | Latency to escape in acquisition trial [2, 4]: 48.46 ± 4.49 s | average time to locate the submerged platform ([2]; 80 mg/kg po + scopolamine): 45.83 ± 3.70 s | average time to locate the submerged platform ([2]; 250 mg/kg po + scopolamine): 47.31 ± 2.45 s | Latency to escape in acquisition trial ([2]; Day 2, session 1, 80 mg/kg po + scopolamine 0.5 mg/kg ip): 45.24 ± 7.87 s | Latency to escape in acquisition trial [2, 5]: 43.94 ± 5.18 s | Latency to escape in acquisition trial ([2]; Day 2, session 2, 80 mg/kg po + scopolamine 0.5 mg/kg ip): 41.88 ± 3.19 s | Latency to escape in acquisition trial [2, 6]: 50.76 ± 3.90 s | Latency to escape in acquisition trial ([2]; Day 3, session 1, 80 mg/kg po + scopolamine 0.5 mg/kg ip): 40.42 ± 5.48 s | Latency to escape in acquisition trial [2, 7]: 48.62 ± 5.64 s | Latency to escape in acquisition trial ([2]; Day 3, session 2, 80 mg/kg po + scopolamine 0.5 mg/kg ip): 36.04 ± 5.50 s | Latency to escape in acquisition trial [2, 8]: 40.42 ± 4.57 s | Latency to escape in acquisition trial ([2]; Day 4, session 1, 80 mg/kg po + scopolamine 0.5 mg/kg ip): 37.84 ± 4.36 s | Latency to escape in acquisition trial [2, 9]: 44.36 ± 6.54 s | Latency to escape in acquisition trial ([2]; Day 4, session 2, 80 mg/kg po + scopolamine 0.5 mg/kg ip): 38.74 ± 5.25 s | Latency to escape in acquisition trial [2, 10]: 41.58 ± 6.33 s | Latency to escape in acquisition trial ([2]; Day 5, session 1, 80 mg/kg po + scopolamine 0.5 mg/kg ip): 27.14 ± 4.30 s | Latency to escape in acquisition trial [2, 11]: 41.44 ± 7.24 s | Latency to escape in acquisition trial ([2]; Day 5, session 2, 80 mg/kg po + scopolamine 0.5 mg/kg ip): 33.38 ± 6.04 s | Latency to escape in acquisition trial [2, 12]: 35.24 ± 7.74 s | Time spent in target quadrant in probe trial ([2]; Day 6, session 1, 80 mg/kg po + scopolamine 0.5 mg/kg ip on days 1-5): 19.80 ± 1.19 s | Time spent in target quadrant in probe trial [2, 13]: 16.00 ± 2.37 s | Time spent in target quadrant in probe trial ([2]; Day 6, session 2, 80 mg/kg po + scopolamine 0.5 mg/kg ip on days 1-5, in s): 17.28 ± 1.11 | Time spent in target quadrant in probe trial [2, 14]: 16.50 ± 1.61 | visible behavioral abnormalities ([2]; Morris water maze study): no visible behavioral abnormalities

CN1[C@@H]2C[C@@H](OC(=O)[C@H](CO)c3ccccc3)C[C@H]1[C@@H]1O[C@@H]12 [Scopolamine]
average time to locate the submerged platform ([2]; scopolamine 0.5 mg/kg ip alone): 46.11 ± 2.98 s | latency to the submerged platform in acquisition trials (effect in words) ([2]; Day 5, scopolamine 0.5 mg/kg): significantly increased | Time spent in target quadrant in probe trial ([2]; Day 6, session 1, scopolamine 0.5 mg/kg ip alone (0.5% MC po) on days 1-5): 15.70 ± 1.42 s | Time spent in target quadrant in probe trial ([2]; Day 6, session 2, scopolamine 0.5 mg/kg ip alone (0.5% MC po) on days 1-5, in s): 12.30 ± 1.24 | time to locate in target quadrant in probe trials (effect in words) ([2]; scopolamine 0.5 mg/kg): reduced

COc1cc2c(cc1OC)C(=O)C(CC1CCN(Cc3ccccc3)CC1)C2 (stereo not drawn) [Donepezil, Donepezil hydrochloride]
effect on learning and memory deficit induced by scopolamine, probe trials (in words) ([2]; 0.1 mg/kg, vs scopolamine only group): significantly attenuated | Latency to escape in acquisition trial ([2]; Day 1, session 1, 0.1 mg/kg ip + scopolamine 0.5 mg/kg ip): 48.52 ± 5.50 s | Latency to escape in acquisition trial ([2]; Day 1, session 2, 0.1 mg/kg ip + scopolamine 0.5 mg/kg ip): 45.44 ± 5.40 s | average time to locate the submerged platform ([2]; 0.1 mg/kg ip + scopolamine): 46.98 ± 3.67 s | Latency to escape in acquisition trial ([2]; Day 2, session 1, 0.1 mg/kg ip + scopolamine 0.5 mg/kg ip): 44.50 ± 2.48 s | Latency to escape in acquisition trial ([2]; Day 2, session 2, 0.1 mg/kg ip + scopolamine 0.5 mg/kg ip): 43.18 ± 7.85 s | Latency to escape in acquisition trial ([2]; Day 3, session 1, 0.1 mg/kg ip + scopolamine 0.5 mg/kg ip): 35.92 ± 8.22 s | Latency to escape in acquisition trial ([2]; Day 3, session 2, 0.1 mg/kg ip + scopolamine 0.5 mg/kg ip): 37.06 ± 4.26 s | Latency to escape in acquisition trial ([2]; Day 4, session 1, 0.1 mg/kg ip + scopolamine 0.5 mg/kg ip): 36.04 ± 4.78 s | Latency to escape in acquisition trial ([2]; Day 4, session 2, 0.1 mg/kg ip + scopolamine 0.5 mg/kg ip): 34.20 ± 6.89 s | Latency to escape in acquisition trial ([2]; Day 5, session 1, 0.1 mg/kg ip + scopolamine 0.5 mg/kg ip): 26.86 ± 3.09 s | Latency to escape in acquisition trial ([2]; Day 5, session 2, 0.1 mg/kg ip + scopolamine 0.5 mg/kg ip): 30.50 ± 5.78 s | Time spent in target quadrant in probe trial ([2]; Day 6, session 1, 0.1 mg/kg ip + scopolamine 0.5 mg/kg ip on days 1-5): 18.84 ± 3.22 s | Time spent in target quadrant in probe trial ([2]; Day 6, session 2, 0.1 mg/kg ip + scopolamine 0.5 mg/kg ip on days 1-5, in s): 19.40 ± 1.09
